Like-named read-outs stand apart in the source and are kept apart here.
What was measured:
A. baumannii (GDM1.609) = experiment: MIC by micro-broth dilution (CLSI); type: cell-based, Acinetobacter baumannii; conditions: Fig. 1D; for inhibitory activity on A. baumannii (in words): MIC test; for MIC: micro-broth dilution, 37°C, 24 h, OD 600 nm, three replicates
Method: (§1) The MIC of F3 against different bacteria were measured by using a micro-broth dilution method developed by the Clinical and Laboratory Standards Institute ([33]). Briefly, the bacterial suspension with absorbance ranging from 0.08 to 0.10 was prepared and 100 µL of the bacterial suspension to a 96 U-shaped well culture plate. The dalbavancin HCl and sodium fusidate were prepared into 328 µM, polymyxin B was prepared at 840.7 µM with phosphate-buffered saline (PBS). Concentrations of F1 and F3 and of F-K were diluted to […] and 479.8 μM, and they were added into 96-well plates with concentration gradients of 310.5, 155.2, 77.6, 38.8, 19.4, 9.7, and 4.9 µM, respectively, with three replicates for each concentration, the equivalent volume of PBS was added as a growth control. The bacteria were cultured at 37°C for 24 h. The optical density (OD) value at 600 nm was measured with a MULTISKAN GO microplate spectrophotometer.

P. aeruginosa (GDM1.443) = experiment: MIC by micro-broth dilution (CLSI); type: cell-based,  Pseudomonas aeruginosa; conditions: Fig. 1F; for inhibition of P. aeruginosa growth (in words): MIC test
Method: as §1

E. coli (GDM1.176) = experiment: MIC by micro-broth dilution (CLSI); type: cell-based, Escherichia coli; conditions: for inhibition of E. coli growth (in words): MIC test, Fig. 1E
Method: as §1

[1] = pH 5.5; cited from earlier work
bacteria = conditions: after repeatedly in vitro culture; cited from earlier work
Text: Moreover, caerin 1.1 has an additive antibacterial effect when used together with caerin 1.9. Caerin 1.1 and caerin 1.9 prepared in the form of a temperature-sensitive gel inhibit MRSA growth in a skin bacterial infecti ...

| Molecule | inhibitory activity on A. baumannii (in words) (A. baumannii (GDM1.609)) | inhibition of P. aeruginosa growth (in words) (P. aeruginosa (GDM1.443)) | inhibition of E. coli growth (in words) (E. coli (GDM1.176)) | MIC (A. baumannii (GDM1.609)) | stability at pH and temperature [1] | MIC (A. baumannii (GDM1.609); Acinetobacter baumannii, read-out: MIC) [µM] | MIC (P. aeruginosa (GDM1.443); Pseudomonas aeruginosa, micro-broth dilution, 37°C, 24 h, OD 600 nm, three replicates) [µM] | MIC (E. coli (GDM1.176); Escherichia coli, 24 h) [µM] | induction of bacterial resistance (bacteria) |
| --- | --- | --- | --- | --- | --- | --- | --- | --- | --- |
| CN[C@H]1C(=O)N[C@@H]2Cc3ccc(cc3)Oc3cc4cc(c3O[C@@H]3O[C@H](C(=O)O)[C@@H](O)[C@H](O)[C@H]3NC(=O)CCCCCCCCC(C)C)Oc3ccc(cc3Cl)[C@@H](O)[C@@H]3NC(=O)[C@H](NC(=O)[C@@H]4NC(=O)[C@@H](NC2=O)c2cc(cc(O)c2Cl)Oc2cc1ccc2O)c1ccc(O)c(c1)-c1c(O[C@H]2O[C@H](CO)[C@@H](O)[C@H](O)[C@@H]2O)cc(O)cc1[C@@H](C(=O)NCCCN(C)C)NC3=O [Dalbavancin, dalbavancin] | no inhibitory activity | incapable of stopping these bacterial growth | incapable of stopping these bacterial growth | – | – | – | – | – | – |
| GLLSVLGSVAKHVLPHVVPVIAEHL-NH2 [F1, host defense peptide caerin 1.1, originally isolated from the Australian tree frog, synthesized] | comparable inhibition | suppression of the growth of E. coli and P. aeruginosa at high concentrations | suppression of the growth of E. coli and P. aeruginosa at high concentrations | around 5 μM | stable at low pH (5.5–7.4) and room temperature | – | – | – | – |
| PLLLLLPSLLTATL-NH2 [F-K, positive control antimicrobial peptide] | comparable inhibition | the best at inhibiting these two strains of bacteria | the best at inhibiting these two strains of bacteria | – | – | – | – | – | – |
| CC(=O)O[C@H]1C[C@@]2(C)[C@@H](C[C@@H](O)[C@H]3[C@@]4(C)CC[C@@H](O)[C@@H](C)[C@@H]4CC[C@@]32C)/C1=C(\CCC=C(C)C)C(=O)O [Sodium Fusidate, Sodium fusidate] | no inhibitory activity | incapable of stopping these bacterial growth | incapable of stopping these bacterial growth | – | – | 19.7 | 78.7 | 78.7 | – |
| GLFGVLGSIAKHVLPHVVPVIAEKL-NH2 [F3, host defense peptide caerin 1.9, originally isolated from the Australian tree frog, synthesized] | comparable inhibition | suppression of the growth of E. coli and P. aeruginosa at high concentrations | suppression of the growth of E. coli and P. aeruginosa at high concentrations | around 5 μM | stable at low pH (5.5–7.4) and room temperature | – | – | – | did not induce bacterial resistance |
